Measurements from patent US20240238228A1, “COMPOSITIONS AND METHODS FOR TREATING ALLERGIES AND INFLAMMATORY CONDITIONS” (UNIVERSITY OF PITTSBURGH-OF THE COMMONWEALTH SYSTEM OF …, priority 2021, published 2024).

Tested on: IL10-eGFP^+ MCs
Test: IL-10-GFP expression in skin mast cells of VERT-X reporter mice
Format: in vivo, mouse
Conditions: with and without PCA induction
Procedure: C6(Cg)-IL10^tm1.1.Karp/J (VERT-X) mice (Jackson Laboratories) were bred at the University of Pittsburgh. On d0, mice were treated with vehicle on one ear and IgE on the contralateral ear. On day 1, mice were treated with either NKA ([…]) on both ears or vehicle on both ears. Three hours later, PCA was induced. On day 2, mice were euthanized. Excised Ear tissue was digested in IMDM media (Life Technologies) containing collagenase D (Sigma, 1.0 mg/mL) and DNAase (Roche, 1.0 mg/mL) at 37 C for 45 minutes. Single cell homogenates were blocked with FcBlock and stained. In some experiments, avidin AlexaFluro488 was injected intradermally to label cutaneous mast cells were labelled in vivo. Mice were euthanized 7 days after injection.
In other methods, mast cells differentiated for 5-7 weeks (BMMCs) or 3-4 weeks (PMCs) were collected, blocked with FcBlock and stained with anti-FceRI PE (clone MAR-1, Biolegend), anti-CD117 eFluor 450 clone 2B8, ThermoFisher) and anti-NK2R Alexa Fluor 647 or rabbit IgG Alexa Fluor 647 isotype control (Cell Signaling Technology). […]

Neurokinin A [NKA]
increase in percentage of IL10-eGFP^+ MCs: two-fold
